Data on one compound can be found in BindingDB's records for doi:10.1002/(SICI)1098-2396(200002)35:2<79::AID-SYN1>3.0.CO;2-X (Institut De Recherches Servier, 2000).

Test [1] deals with T1, Alpha-1A adrenergic receptor (Rattus norvegicus, UniProt P43140).
T1 sequence (P43140 whole entry): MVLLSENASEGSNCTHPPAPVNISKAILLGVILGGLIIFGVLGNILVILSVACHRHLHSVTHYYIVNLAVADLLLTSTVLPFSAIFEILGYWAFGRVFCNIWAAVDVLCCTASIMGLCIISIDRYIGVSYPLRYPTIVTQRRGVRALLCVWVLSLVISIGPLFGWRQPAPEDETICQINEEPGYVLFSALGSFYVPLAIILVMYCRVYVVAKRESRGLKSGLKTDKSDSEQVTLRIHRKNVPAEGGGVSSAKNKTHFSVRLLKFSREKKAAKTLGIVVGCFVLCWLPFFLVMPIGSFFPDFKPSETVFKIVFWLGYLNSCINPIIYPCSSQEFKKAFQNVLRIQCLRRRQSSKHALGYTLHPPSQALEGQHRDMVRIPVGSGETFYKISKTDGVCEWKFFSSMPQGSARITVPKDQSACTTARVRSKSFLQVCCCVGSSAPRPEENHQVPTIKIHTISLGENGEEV

For test [2], the target named is T2, 5-hydroxytryptamine receptor 2C (Homo sapiens, UniProt P28335).
T2 sequence (P28335 whole entry): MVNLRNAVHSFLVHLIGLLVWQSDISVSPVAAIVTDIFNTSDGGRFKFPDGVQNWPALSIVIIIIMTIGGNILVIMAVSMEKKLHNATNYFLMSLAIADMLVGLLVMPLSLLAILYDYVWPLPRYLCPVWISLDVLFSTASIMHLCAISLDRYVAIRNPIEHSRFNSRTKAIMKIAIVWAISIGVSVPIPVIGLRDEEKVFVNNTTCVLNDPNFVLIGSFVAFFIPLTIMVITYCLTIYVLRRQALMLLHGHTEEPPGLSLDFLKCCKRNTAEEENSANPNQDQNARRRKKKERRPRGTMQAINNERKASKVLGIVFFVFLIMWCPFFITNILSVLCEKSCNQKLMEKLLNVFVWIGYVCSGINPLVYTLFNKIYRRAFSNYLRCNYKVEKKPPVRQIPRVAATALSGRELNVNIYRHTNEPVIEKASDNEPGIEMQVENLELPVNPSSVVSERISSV

Test [3] addresses T3, 5-hydroxytryptamine receptor 1A (Homo sapiens, UniProt P08908).
T3 sequence (P08908 whole entry): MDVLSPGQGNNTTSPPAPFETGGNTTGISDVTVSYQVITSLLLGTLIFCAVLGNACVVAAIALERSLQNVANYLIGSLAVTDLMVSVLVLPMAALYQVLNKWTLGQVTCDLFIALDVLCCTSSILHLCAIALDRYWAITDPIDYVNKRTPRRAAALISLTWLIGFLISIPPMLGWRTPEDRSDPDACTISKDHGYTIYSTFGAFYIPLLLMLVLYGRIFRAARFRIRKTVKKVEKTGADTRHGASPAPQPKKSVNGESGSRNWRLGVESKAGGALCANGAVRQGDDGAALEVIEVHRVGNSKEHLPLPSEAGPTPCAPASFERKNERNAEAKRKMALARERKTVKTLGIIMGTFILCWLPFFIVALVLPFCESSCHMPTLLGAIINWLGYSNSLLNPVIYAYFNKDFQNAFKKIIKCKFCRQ

Test [4] has as its target 5-hydroxytryptamine receptor 2A (Rattus norvegicus, UniProt P14842).
Test [5] deals with D(2) dopamine receptor (Rattus norvegicus, UniProt P61169).
In test [6] the target is T4, Alpha-1D adrenergic receptor (Homo sapiens, UniProt P25100).
T4 sequence (P25100 whole entry): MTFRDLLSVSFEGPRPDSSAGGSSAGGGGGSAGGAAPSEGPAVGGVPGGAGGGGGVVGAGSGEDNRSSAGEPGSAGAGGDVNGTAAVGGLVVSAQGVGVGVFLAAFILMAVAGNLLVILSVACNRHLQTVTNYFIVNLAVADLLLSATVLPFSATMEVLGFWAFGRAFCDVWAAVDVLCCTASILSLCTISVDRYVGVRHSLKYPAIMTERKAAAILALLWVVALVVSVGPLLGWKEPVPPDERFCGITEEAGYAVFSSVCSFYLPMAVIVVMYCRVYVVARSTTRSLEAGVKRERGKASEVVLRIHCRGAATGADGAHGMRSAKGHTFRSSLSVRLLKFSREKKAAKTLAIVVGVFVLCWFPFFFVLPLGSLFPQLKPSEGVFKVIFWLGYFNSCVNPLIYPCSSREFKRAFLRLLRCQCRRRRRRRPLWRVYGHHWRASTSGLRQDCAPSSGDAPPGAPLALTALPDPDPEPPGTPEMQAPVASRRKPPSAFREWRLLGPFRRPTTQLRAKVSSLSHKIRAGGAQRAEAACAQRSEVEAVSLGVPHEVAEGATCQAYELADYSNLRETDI

Test [7] has as its target D(2) dopamine receptor (Homo sapiens, UniProt P14416).
In test [8] the target is 5-hydroxytryptamine receptor 1B (Cavia porcellus, UniProt O08892).
The target of test [9] is T5, Alpha-1A adrenergic receptor (Homo sapiens, UniProt P35348).
T5 sequence (P35348 whole entry): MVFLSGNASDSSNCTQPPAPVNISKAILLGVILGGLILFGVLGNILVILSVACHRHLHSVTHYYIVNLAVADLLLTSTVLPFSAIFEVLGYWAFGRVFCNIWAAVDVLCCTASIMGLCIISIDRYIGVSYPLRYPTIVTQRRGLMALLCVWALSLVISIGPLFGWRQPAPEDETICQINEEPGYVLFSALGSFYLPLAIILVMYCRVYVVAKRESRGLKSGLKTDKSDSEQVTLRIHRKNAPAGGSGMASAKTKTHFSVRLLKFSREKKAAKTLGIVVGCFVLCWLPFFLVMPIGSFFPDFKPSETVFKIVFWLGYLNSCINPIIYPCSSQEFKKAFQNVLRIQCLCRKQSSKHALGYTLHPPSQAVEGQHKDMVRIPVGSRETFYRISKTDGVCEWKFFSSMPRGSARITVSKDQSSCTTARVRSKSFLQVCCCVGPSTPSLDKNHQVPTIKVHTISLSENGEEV

A further test concerns the target D(3) dopamine receptor (Homo sapiens, UniProt P35462).

Chain of D(2) dopamine receptor (Rattus norvegicus, UniProt P61169) (P61169 whole entry): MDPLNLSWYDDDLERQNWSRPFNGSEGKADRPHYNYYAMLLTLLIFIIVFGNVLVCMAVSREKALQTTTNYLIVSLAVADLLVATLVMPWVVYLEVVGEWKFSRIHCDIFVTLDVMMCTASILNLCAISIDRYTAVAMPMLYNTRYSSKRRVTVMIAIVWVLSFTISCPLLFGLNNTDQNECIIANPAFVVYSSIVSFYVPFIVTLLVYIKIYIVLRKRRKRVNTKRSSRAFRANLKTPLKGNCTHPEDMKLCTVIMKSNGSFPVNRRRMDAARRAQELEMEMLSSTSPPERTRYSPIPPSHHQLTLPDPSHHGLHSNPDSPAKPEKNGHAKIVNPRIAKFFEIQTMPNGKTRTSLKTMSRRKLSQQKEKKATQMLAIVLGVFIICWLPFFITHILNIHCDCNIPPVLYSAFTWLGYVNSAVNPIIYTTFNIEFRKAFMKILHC
Chain of D(2) dopamine receptor (Homo sapiens, UniProt P14416) (P14416 whole entry): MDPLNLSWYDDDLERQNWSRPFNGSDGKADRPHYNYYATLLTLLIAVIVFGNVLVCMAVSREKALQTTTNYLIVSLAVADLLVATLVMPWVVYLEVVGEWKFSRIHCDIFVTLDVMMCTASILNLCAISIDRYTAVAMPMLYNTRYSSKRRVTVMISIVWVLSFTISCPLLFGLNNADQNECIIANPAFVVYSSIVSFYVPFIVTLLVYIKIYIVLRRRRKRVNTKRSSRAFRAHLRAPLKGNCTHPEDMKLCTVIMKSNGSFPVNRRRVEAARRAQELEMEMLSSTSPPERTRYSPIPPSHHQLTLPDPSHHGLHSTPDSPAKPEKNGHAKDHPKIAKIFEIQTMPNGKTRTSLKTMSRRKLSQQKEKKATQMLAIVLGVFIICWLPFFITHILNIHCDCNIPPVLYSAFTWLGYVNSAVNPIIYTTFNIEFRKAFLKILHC
Chain of 5-hydroxytryptamine receptor 2A (P14842 whole entry): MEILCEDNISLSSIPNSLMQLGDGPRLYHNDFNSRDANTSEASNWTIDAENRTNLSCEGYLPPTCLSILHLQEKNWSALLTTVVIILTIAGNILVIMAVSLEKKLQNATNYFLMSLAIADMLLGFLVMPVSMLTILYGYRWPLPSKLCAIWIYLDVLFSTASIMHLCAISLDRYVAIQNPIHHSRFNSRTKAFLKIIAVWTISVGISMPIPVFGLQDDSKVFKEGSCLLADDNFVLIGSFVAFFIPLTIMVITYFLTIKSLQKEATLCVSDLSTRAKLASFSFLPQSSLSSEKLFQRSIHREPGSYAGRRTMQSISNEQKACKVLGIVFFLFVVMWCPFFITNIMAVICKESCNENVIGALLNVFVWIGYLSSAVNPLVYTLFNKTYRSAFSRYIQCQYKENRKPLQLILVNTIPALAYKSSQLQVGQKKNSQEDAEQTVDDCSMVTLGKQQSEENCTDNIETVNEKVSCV
Chain of D(3) dopamine receptor (P35462 as listed by the source): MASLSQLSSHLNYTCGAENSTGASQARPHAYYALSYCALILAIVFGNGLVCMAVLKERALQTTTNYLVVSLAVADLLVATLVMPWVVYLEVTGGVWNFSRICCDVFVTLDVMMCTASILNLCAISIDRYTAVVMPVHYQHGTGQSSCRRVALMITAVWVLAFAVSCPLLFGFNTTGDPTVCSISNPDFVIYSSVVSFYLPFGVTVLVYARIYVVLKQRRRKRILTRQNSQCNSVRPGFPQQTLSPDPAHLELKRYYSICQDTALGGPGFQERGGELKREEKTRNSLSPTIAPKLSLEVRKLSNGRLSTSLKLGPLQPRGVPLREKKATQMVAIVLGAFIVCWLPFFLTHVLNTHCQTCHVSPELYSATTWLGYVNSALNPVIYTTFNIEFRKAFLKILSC
Chain of 5-hydroxytryptamine receptor 1B (O08892 whole entry): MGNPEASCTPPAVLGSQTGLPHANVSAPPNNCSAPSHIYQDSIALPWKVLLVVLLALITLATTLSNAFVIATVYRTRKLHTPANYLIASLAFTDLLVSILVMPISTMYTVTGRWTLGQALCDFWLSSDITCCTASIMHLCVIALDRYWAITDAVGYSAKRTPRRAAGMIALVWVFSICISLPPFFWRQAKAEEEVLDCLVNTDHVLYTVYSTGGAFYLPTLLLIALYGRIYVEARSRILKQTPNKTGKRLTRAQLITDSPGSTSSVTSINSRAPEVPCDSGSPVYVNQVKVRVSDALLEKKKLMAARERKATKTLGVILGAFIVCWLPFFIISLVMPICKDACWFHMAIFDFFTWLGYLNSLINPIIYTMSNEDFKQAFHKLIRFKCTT

For the compound `Fc1cccc2c1OC1CNCC1O2` (stereo not given) [CAS_105182-45-4], the inhibition constant (Ki) in test [1] was found to be 794 nM; in [2] it was 1000 nM; in [3], 158 nM; in test [4] it was 1000 nM; at D(2) dopamine receptor [5] it was 3160 nM; in test [6] it was 126 nM. The Ki at D(2) dopamine receptor [7] was determined as 1000 nM; in test [8], 1000 nM; in test [9] it was 501 nM; at D(3) dopamine receptor, 1000 nM.
